Values after ≈ are worked out from the molar mass of the structure shown. Structures can show the parent of a compound that is named as a salt. Where two headings read alike, the source gives them in different places.

The term LD50 denotes the dose expected to kill half of the subjects tested. Broadly, the MIC is the lowest concentration found to suppress growth.

A short description of data set [1]: Acute toxicity (LD50) in mice (i.v.). The conditions noted are these: mouse, in vivo, iv.
A further data set has as its system Ser. marcescens, 10104. As to the kind of experiment: Antibacterial activity (MIC), Table 1: Ser. marcescens, 10104. The class given is cell-based. The conditions noted are these: Serratia marcescens, Mueller-Hinton Broth, 10^6/ml, 37° C., 18 hours. How it is done:
(§1) *Determined by the standard method of the Japan Society of Chemoterapy:
(§2) (MuellerHinton Broth medium), 10^6 /ml of bacteria were seeded and
(§3) incubated at 37° C. for 18 hours.

The test system of another data set is Pr. mirabilis, IFO-3849. The data set can be described thus: Antibacterial activity (MIC), Table 1: Pr. mirabilis, IFO-3849. The class given is cell-based. The conditions noted are these: Proteus mirabilis, IFO3849, Mueller-Hinton Broth, 10^6/ml, 37° C., 18 hours. How it is done:
as §1, §2, §3

The next data set concerns Sh. flexneri, 2a, 5503. The data set can be described thus: Antibacterial activity (MIC), Table 1: Sh. flexneri, 2a, 5503. It counts as cell-based. The conditions noted are these: Shigella flexneri, Mueller-Hinton Broth, 10^6/ml, 37° C., 18 hours. The procedure:
as §1, §2, §3

A further data set relates to Ent. cloacae, 03400. As to the kind of experiment: Antibacterial activity (MIC), Table 1: Ent. cloacae, 03400. The class given is cell-based. The procedure: as §1, §2, §3
The test system of a further data set is Ps. aeruginosa, 32233. The data set can be described thus: Antibacterial activity (MIC), Table 1: Ps. aeruginosa, 32233. It counts as cell-based. The conditions noted are these: Pseudomonas aeruginosa, Mueller-Hinton Broth, 10^6/ml, 37° C., 18 hours. The procedure: as §1, §2, §3
The next data set deals with Pr. vulgaris, 08602. The data set can be described thus: Antibacterial activity (MIC), Table 1: Pr. vulgaris, 08602. The class given is cell-based. The conditions noted are these: Proteus vulgaris, Mueller-Hinton Broth, 10^6/ml, 37° C., 18 hours. How it is done:
as §1, §2, §3

The test system of the next data set is E. coli, NIHJ. The data set can be described thus: Antibacterial activity (MIC), Table 1: E. coli, NIHJ. It counts as cell-based. The conditions noted are these: Escherichia coli, Mueller-Hinton Broth, 10^6/ml, 37° C., 18 hours. How it is done: as §1, §2, §3
The subject of another data set is Ps. aeruginosa, 32104. The data set can be described thus: Antibacterial activity (MIC), Table 1: Ps. aeruginosa, 32104. It counts as cell-based. The conditions noted are these: Pseudomonas aeruginosa, Mueller-Hinton Broth, 10^6/ml, 37° C., 18 hours. The procedure: as §1, §2, §3
The next data set relates to Ps. aeruginosa, 32234. The data set can be described thus: Antibacterial activity (MIC), Table 1: Ps. aeruginosa, 32234. The class given is cell-based. The conditions noted are these: Pseudomonas aeruginosa, Mueller-Hinton Broth, 10^6/ml, 37° C., 18 hours. How it is done: as §1, §2, §3
The next data set concerns Str. pyogenes, G-36. The data set can be described thus: Antibacterial activity (MIC), Table 1: Str. pyogenes, G-36. It counts as cell-based. The conditions noted are these: Streptococcus pyogenes, G36, Mueller-Hinton Broth, 10^6/ml, 37° C., 18 hours. The procedure:
as §1, §2, §3

A further data set deals with Pseudomonas aeruginosa. The data set can be described thus: Antibacterial activity against Pseudomonas aeruginosa (summary of Table 1). The conditions noted are these: in words. The class given is cell-based. The procedure: as §1, §2, §3
The test system of a further data set is S. aureus, 209 P. The data set can be described thus: Antibacterial activity (MIC), Table 1: S. aureus, 209 P. It counts as cell-based. The conditions noted are these: Staphylococcus aureus, Mueller-Hinton Broth, 10^6/ml, 37° C., 18 hours. The procedure:
as §1, §2, §3

The subject of a further data set is S. epidermidis, 56500. The data set can be described thus: Antibacterial activity (MIC), Table 1: S. epidermidis, 56500. The class given is cell-based. The conditions noted are these: Staphylococcus epidermidis, Mueller-Hinton Broth, 10^6/ml, 37° C., 18 hours. How it is done:
as §1, §2, §3

A further data set concerns K. pneumoniae, type 1. As to the kind of experiment: Antibacterial activity (MIC), Table 1: K. pneumoniae, type 1. The class given is cell-based. The conditions noted are these: Klebsiella pneumoniae, TYPE1, Mueller-Hinton Broth, 10^6/ml, 37° C., 18 hours. How it is done:
as §1, §2, §3

For data set [2], the system named is Str. faecalis, ATCC-19433. The data set can be described thus: Antibacterial activity (MIC), Table 1: Str. faecalis, ATCC-19433. It counts as cell-based. The conditions noted are these: Enterococcus faecalis, ATCC19433, Mueller-Hinton Broth, 10^6/ml, 37° C., 18 hours. The procedure:
as §1, §2, §3

For another data set, the system named is B. subtilis, ATCC-6633. The data set can be described thus: Antibacterial activity (MIC), Table 1: B. subtilis, ATCC-6633. The class given is cell-based. The conditions noted are these: Bacillus subtilis, ATCC6633, Mueller-Hinton Broth, 10^6/ml, 37° C., 18 hours. The procedure: as §1, §2, §3
Another data set relates to Ps. aeruginosa, 32121. As to the kind of experiment: Antibacterial activity (MIC), Table 1: Ps. aeruginosa, 32121. The conditions noted are these: Pseudomonas aeruginosa, Mueller-Hinton Broth, 10^6/ml, 37° C., 18 hours. It counts as cell-based. The procedure:
as §1, §2, §3

For a further data set, the system named is Ps. aeruginosa, 32122. The data set can be described thus: Antibacterial activity (MIC), Table 1: Ps. aeruginosa, 32122. The conditions noted are these: Pseudomonas aeruginosa, Mueller-Hinton Broth, 10^6/ml, 37° C., 18 hours. The class given is cell-based. How it is done:
as §1, §2, §3

For a further data set, the system named is Gram-positive bacteria. As to the kind of experiment: Antibacterial activity against Gram-positive bacteria (summary of Table 1). The class given is cell-based. The conditions noted are these: in words. The procedure: as §1, §2, §3

Molecule `C=C1CCc2c(N3CCC(N)C3)c(F)cc3c(=O)c(C(=O)O)cn1c23` (stereo not shown) [Ib, hydrochloric acid addition salt, 8-(3-amino--pyrrolidinyl)-9-fluoro-5-methylene-6,7-dihydro-1-oxo-1H,5H-benzo(ij)quinolizine-2-carboxylic acid] came in with a median lethal dose (LD50) in [1] of 252 mg/kg.

Take `C=C1CCc2c(N3CCC(N)C3)c(F)cc3c(=O)c(C(=O)O)cn1c23` (stereo not shown) [Ib, 8-(3-amino-1-pyrrolidinyl)-9-fluoro-5-methylene-1-oxo-6,7-dihydro-1H,5H-benzo(ij)quinolizine-2-carboxylic acid]: the MIC in the data set with Ser. marcescens, 10104 came out at 0.05 µg/mL (≈ 0.146 µM); in the data set on Pr. mirabilis, IFO-3849, 0.025 µg/mL (≈ 0.0728 µM); in the data set with Sh. flexneri, 2a, 5503, 0.0125 µg/mL (≈ 0.0364 µM); against Ent. cloacae, 03400 (Enterobacter cloacae, 03400, 18 h), 0.0125 µg/mL (≈ 0.0364 µM); against Ps. aeruginosa, 32233, 0.1 µg/mL (≈ 0.291 µM); in the data set with Pr. vulgaris, 08602, 0.025 µg/mL (≈ 0.0728 µM). Besides, the MIC is 0.0125 µg/mL (≈ 0.0364 µM) in the data set with E. coli, NIHJ; 0.05 µg/mL (≈ 0.146 µM) in the data set with Ps. aeruginosa, 32104; 0.05 µg/mL (≈ 0.146 µM) against Ps. aeruginosa, 32234; 0.39 µg/mL (≈ 1.14 µM) with Str. pyogenes, G-36; 0.1 µg/mL (≈ 0.291 µM) in the data set with S. aureus, 209 P; 0.19 µg/mL (≈ 0.553 µM) in the data set on S. epidermidis, 56500. Further, the minimal inhibitory concentration (MIC) in the data set on K. pneumoniae, type 1 amounted to 0.05 µg/mL (≈ 0.146 µM); in data set [2], 0.39 µg/mL (≈ 1.14 µM); with B. subtilis, ATCC-6633, 0.025 µg/mL (≈ 0.0728 µM); in the data set with Ps. aeruginosa, 32121 it was 0.025 µg/mL (≈ 0.0728 µM); in the data set on Ps. aeruginosa, 32122 it was 0.1 µg/mL (≈ 0.291 µM). Also, the “antibacterial activity against Pseudomonas aeruginosa” value in the data set with Pseudomonas aeruginosa is given as “very strong antibacterial activity”.

With `C=C1CCc2c(N3CCC(O)C3)c(F)cc3c(=O)c(C(=O)O)cn1c23` (stereo not shown) [Ia, 9-fluoro-8-(3-hydroxy-1-pyrrolidinyl)-5-methylene-1-oxo-6,7-dihydro-1H,5H-benzo(ij)quinolizine-2-carboxylic acid], the MIC was 0.1 µg/mL (≈ 0.29 µM) with Ser. marcescens, 10104; 0.1 µg/mL (≈ 0.29 µM) with Pr. mirabilis, IFO-3849; 0.0125 µg/mL (≈ 0.0363 µM) in the data set on Sh. flexneri, 2a, 5503; 0.05 µg/mL (≈ 0.145 µM) in the data set on Ent. cloacae, 03400 (Enterobacter cloacae, Ent. cloacae, 03400, Mueller-Hinton Broth, 10^6/ml, 37° C., 18 hours, read-out: MIC); 0.78 µg/mL (≈ 2.27 µM) against Ps. aeruginosa, 32233; 0.05 µg/mL (≈ 0.145 µM) against Pr. vulgaris, 08602. The MIC came to 0.0125 µg/mL (≈ 0.0363 µM) against E. coli, NIHJ; 0.31 µg/mL (≈ 0.9 µM) with Ps. aeruginosa, 32104; 0.39 µg/mL (≈ 1.13 µM) in the data set with Ps. aeruginosa, 32234; 0.39 µg/mL (≈ 1.13 µM) in the data set on Str. pyogenes, G-36; 0.05 µg/mL (≈ 0.145 µM) against S. aureus, 209 P; 0.1 µg/mL (≈ 0.29 µM) in the data set on S. epidermidis, 56500. Also, the MIC against K. pneumoniae, type 1 is 0.1 µg/mL (≈ 0.29 µM); in [2], 0.39 µg/mL (≈ 1.13 µM); in the data set on B. subtilis, ATCC-6633, ≤ 0.0063 µg/mL; against Ps. aeruginosa, 32121 it was 0.1 µg/mL (≈ 0.29 µM); in the data set with Ps. aeruginosa, 32122, 0.39 µg/mL (≈ 1.13 µM). Further, in the data set with Gram-positive bacteria, the “antibacterial activity against Gram-positive bacteria” value is “very strong antibacterial activity”.

(Values after patent US4535161A, “Benzoquinolizine derivatives” (Daiichi Seiyaku Co., Ltd., priority 1982, dated 1985).)
